Source: patent publication US11472791B2 (Incyte Corporation, priority 2019, dated 2022)

These molecules were tested against CDK2/Cyclin E1 (Homo sapiens (Human), UniProt P24941) (assay: CDK2/Cyclin E1 HTRF enzyme activity assay). Conditions: 1 mM ATP.
Assay type: biochemical
Experimental: Assays are conducted in white 384-well polystyrene plates in a final reaction volume of 8 μL. […] HTRF signals are read after 1 hour at room temperature on a PHERAstar FS plate reader (BMG Labtech). Data is analyzed with IDBS XLFit and GraphPad Prism 5.0 software using a three or four parameter dose response curve to determine IC50 for each compound.

Row | Structure (SMILES) | IC50
1 | CC(C)(O)Cn1cc(-c2nc(NC3CCN(S(=O)(=O)CCCCN4CCCC4)CC3)ncc2C(F)(F)F)cn1 [Example 80, 2-Methyl-1-(4-(2-((1-((4-(pyrrolidin-1-yl)butyl)sulfonyl)piperidin-4-yl)amino)-5-(trifluoromethyl)pyrimidin-4-yl)-1H-pyrazol-1-yl)propan-2-ol] | < 50 nM
2 | CC(C)(O)Cn1cc(-c2nc(NC3CCN(S(=O)(=O)CCCCN4CCCCC4)CC3)ncc2C(F)(F)F)cn1 [Example 81, 2-Methyl-1-(4-(2-((1-((4-(piperidin-1-yl)butyl)sulfonyl)piperidin-4-yl)amino)-5-(trifluoromethyl)pyrimidin-4-yl)-1H-pyrazol-1-yl)propan-2-ol] | < 50 nM
3 | CC(C)(O)Cn1cc(-c2nc(NC3CCN(S(=O)(=O)CCN4CCCC4)CC3)ncc2C(F)(F)F)cn1 [Example 82, 2-Methyl-1-(4-(2-((1-((2-(pyrrolidin-1-yl)ethyl)sulfonyl)piperidin-4-yl)amino)-5-(trifluoromethyl)pyrimidin-4-yl)-1H-pyrazol-1-yl)propan-2-ol] | < 50 nM
4 | CN(C)CCS(=O)(=O)N1CCC(Nc2ncc(C(F)(F)F)c(-c3cnn(CC(C)(C)O)c3)n2)CC1 [Example 83, 1-(4-(2-((1-((2-(Dimethylamino)ethyl)sulfonyl)piperidin-4-yl)amino)-5-(trifluoromethyl)pyrimidin-4-yl)-1H-pyrazol-1-yl)-2-methylpropan-2-ol] | < 50 nM
5 | CC(C)(O)Cn1cc(-c2nc(NC3CCN(S(=O)(=O)CCN4CCOCC4)CC3)ncc2C(F)(F)F)cn1 [Example 84, 2-Methyl-1-(4-(2-((1-((2-morpholinoethyl)sulfonyl)piperidin-4-yl)amino)-5-(trifluoromethyl)pyrimidin-4-yl)-1H-pyrazol-1-yl)propan-2-ol] | < 50 nM
6 | CN1CC(S(=O)(=O)N2CCC(Nc3ncc(C(F)(F)F)c(-c4cnn(CC(C)(C)O)c4)n3)CC2)C1 [Example 85, 2-Methyl-1-(4-(2-((1-((1-methylazetidin-3-yl)sulfonyl)piperidin-4-yl)amino)-5-(trifluoromethyl)pyrimidin-4-yl)-1H-pyrazol-1-yl)propan-2-ol] | < 50 nM
7 | CN1CCC(S(=O)(=O)N2CCC(Nc3ncc(C(F)(F)F)c(-c4cnn(CC(C)(C)O)c4)n3)CC2)CC1 [Example 87, 2-Methyl-1-(4-(2-((1-((1-methylpiperidin-4-yl)sulfonyl)piperidin-4-yl)amino)-5-(trifluoromethyl)pyrimidin-4-yl)-1H-pyrazol-1-yl)propan-2-ol] | < 50 nM
8 | CC(C)(O)Cn1cc(-c2nc(NC3CCN(S(=O)(=O)CCCO)CC3)ncc2C(F)(F)F)cn1 [Example 92, 3-((4-((4-(1-(2-Hydroxy-2-methylpropyl)-1H-pyrazol-4-yl)-5-(trifluoromethyl)pyrimidin-2-yl)amino)piperidin-1-yl)sulfonyl)propan-1-ol] | < 50 nM
9 | CC(C)(O)Cn1cc(-c2nc(NC3CCN(S(=O)(=O)CCCCO)CC3)ncc2C(F)(F)F)cn1 [Example 93, 4-((4-((4-(1-(2-Hydroxy-2-methylpropyl)-1H-pyrazol-4-yl)-5-(trifluoromethyl)pyrimidin-2-yl)amino)piperidin-1-yl)sulfonyl)butan-1-ol] | < 50 nM
10 | CC(C)(O)CCS(=O)(=O)N1CCC(Nc2ncc(C(F)(F)F)c(-c3cnn(CC(C)(C)O)c3)n2)CC1 [Example 94, 4-((4-((4-(1-(2-Hydroxy-2-methylpropyl)-1H-pyrazol-4-yl)-5-(trifluoromethyl)pyrimidin-2-yl)amino)piperidin-1-yl)sulfonyl)-2-methylbutan-2-ol] | < 50 nM
11 | CCS(=O)(=O)N1CCC(Nc2ncc(C(F)(F)F)c(-c3cnn(C(C)(C)C(N)=O)c3)n2)CC1 [Example 97, 2-(4-(2-((1-(Ethylsulfonyl)piperidin-4-yl)amino)-5-(trifluoromethyl)pyrimidin-4-yl)-1H-pyrazol-1-yl)-2-methylpropanamide] | < 50 nM
12 | CC(C)(C(N)=O)n1cc(-c2nc(NC3CCN(S(=O)(=O)C4CC4)CC3)ncc2C(F)(F)F)cn1 [Example 98, 2-(4-(2-((1-(Cyclopropylsulfonyl)piperidin-4-yl)amino)-5-(trifluoromethyl)pyrimidin-4-yl)-1H-pyrazol-1-yl)-2-methylpropanamide] | < 50 nM
13 | Cc1cc(CN2CCN(C)CC2)ccc1-n1cc(-c2nc(NC3CCN(S(=O)(=O)c4cn(C)cn4)CC3)ncc2C(F)(F)F)cn1 [Example 100, N-(1-((1-Methyl-1H-imidazol-4-yl)sulfonyl)piperidin-4-yl)-4-(1-(2-methyl-4-((4-methylpiperazin-1-yl)methyl)phenyl)-1H-pyrazol-4-yl)-5-(trifluoromethyl)pyrimidin-2-amine] | < 50 nM
14 | Cc1cc(CN2CCN(C)CC2)ccc1-n1cc(-c2nc(N[C@H]3CCN(S(C)(=O)=O)C[C@H]3F)ncc2C(F)(F)F)cn1 [Example 101, N-((3R,4S)-3-Fluoro-1-(methylsulfonyl)piperidin-4-yl)-4-(1-(2-methyl-4-((4-methylpiperazin-1-yl)methyl)phenyl)-1H-pyrazol-4-yl)-5-(trifluoromethyl)pyrimidin-2-amine] | < 50 nM

Results, then the molecule that gave them:

Row | IC50 | Structure (SMILES)
15 | < 50 nM | COC[C@H]1CCN(CCCS(=O)(=O)N2CCC(Nc3ncc(C(F)(F)F)c(-c4cnn(CC(C)(C)O)c4)n3)CC2)C1 [Example 74, (S)-1-(4-(2-((1-((3-(3-(Methoxymethyl)pyrrolidin-1-yl)propyl)sulfonyl)piperidin-4-yl)amino)-5-(trifluoromethyl)pyrimidin-4-yl)-1H-pyrazol-1-yl)-2-methylpropan-2-ol]
16 | < 50 nM | CC(C)(O)Cn1cc(-c2nc(NC3CCN(S(=O)(=O)CCCN4CCC(O)CC4)CC3)ncc2C(F)(F)F)cn1 [Example 75, 1-(3-((4-((4-(1-(2-Hydroxy-2-methylpropyl)-1H-pyrazol-4-yl)-5-(trifluoromethyl)pyrimidin-2-yl)amino)piperidin-1-yl)sulfonyl)propyl)piperidin-4-ol]
17 | < 50 nM | CC(C)(O)Cn1cc(-c2nc(NC3CCN(S(=O)(=O)CCCN4CCC(C#N)CC4)CC3)ncc2C(F)(F)F)cn1 [Example 76, 1-(3-((4-((4-(1-(2-Hydroxy-2-methylpropyl)-1H-pyrazol-4-yl)-5-(trifluoromethyl)pyrimidin-2-yl)amino)piperidin-1-yl)sulfonyl)propyl)piperidine-4-carbonitrile]
18 | < 50 nM | COC1CCN(CCCS(=O)(=O)N2CCC(Nc3ncc(C(F)(F)F)c(-c4cnn(CC(C)(C)O)c4)n3)CC2)CC1 [Example 77, 1-(4-(2-((1-((3-(4-Methoxypiperidin-1-yl)propyl)sulfonyl)piperidin-4-yl)amino)-5-(trifluoromethyl)pyrimidin-4-yl)-1H-pyrazol-1-yl)-2-methylpropan-2-ol]
19 | < 50 nM | CN(C)CCCCS(=O)(=O)N1CCC(Nc2ncc(C(F)(F)F)c(-c3cnn(CC(C)(C)O)c3)n2)CC1 [Example 78, 1-(4-(2-((1-((4-(Dimethylamino)butyl)sulfonyl)piperidin-4-yl)amino)-5-(trifluoromethyl)pyrimidin-4-yl)-1H-pyrazol-1-yl)-2-methylpropan-2-ol]
20 | < 50 nM | CCN(CC)CCCCS(=O)(=O)N1CCC(Nc2ncc(C(F)(F)F)c(-c3cnn(CC(C)(C)O)c3)n2)CC1 [Example 79, 1-(4-(2-((1-((4-(Diethylamino)butyl)sulfonyl)piperidin-4-yl)amino)-5-(trifluoromethyl)pyrimidin-4-yl)-1H-pyrazol-1-yl)-2-methylpropan-2-ol]
